This passage reports IC50 results from patent US20260364185A1, “Estrogen Receptor Modulator and Use Thereof” (JIANGSU VCARE PHARMATECH CO., LTD., priority 2023, published 2026).

The IC50 is the midpoint of a concentration-inhibition curve. A high value points to lower potency.

In the experiment the test system is MCF7 cells. Put plainly: MCF7 cell activity test (CCK8 proliferation inhibition). In kind it is cell-based. To be noted: Homo sapiens, MCF7, 144 h, 6 days incubation. Here is the method: Experimental Example 1: MCF7 cell activity test
Cell culture: MCF7 cells (culture conditions: MEM medium+20% FBS+1% essential amino acids++1 mg/100 ml insulin, 37° C., 5% CO2). Plating: The cells subcultured into the logarithmic growth phase were collected and transferred into a centrifuge tube, and centrifuged at 800 rpm for 5 min. The cells were resuspended in complete medium and counted. The cells were diluted and adjusted to a final concentration of 30,000 cells/mL. The cells were then seeded into a 96-well plate with 100 μL per well and incubated in an incubator overnight. Administration: Each group of drug solutions was added into the 96-well plate, 100 μL per well, n=3 for each drug concentration. Meanwhile, negative wells (n=6) and blank wells (n=3) were set up. The 96-well plate was incubated in the incubator for further 6 days. CCK8 reagent was added to the 96-well plate, 20 μL per well, and then the plate was placed in the incubator for further 4 h. The absorbance of the solution was measured at a wavelength of 450 nm using an enzyme reader. The proliferation inhibition rate was calculated and the half inhibitory concentration IC50 value was calculated using Graphpad Prism 6.0 software.
Compound `O=C1CCC(n2ncc3cc(N4CCN(C[C@@H]5CCCC[C@H]5CN5CCN(c6ccc([C@@H]7c8ccc(O)cc8CC[C@@H]7c7ccccc7)cc6)CC5)CC4)ccc32)C(=O)N1` (some centres unmarked) [VI-6] gave an IC50 of less than 100 nM.
In turn, `Cn1nc(N2CCC(=O)NC2=O)c2cc(F)c(C3CC4CCC(C3)N4C[C@@H]3CCCC[C@H]3CN3CCN(c4ccc([C@@H]5c6ccc(O)cc6CC[C@@H]5c5ccccc5)cc4)CC3)cc21` (some centres unmarked) [VI-17] registered a 50% inhibitory concentration (IC50) of less than 25 nM.
Next, `C[C@@H]1CC(O)(c2cc3c(cc2F)c(N2CCC(=O)NC2=O)nn3C)CCN1C[C@@H]1CCCC[C@H]1CN1CCN(c2ccc([C@@H]3c4ccc(O)cc4CC[C@@H]3c3ccccc3)cc2)CC1` (stereo partly drawn) [VI-29, 1-(5-fluoro-6-((2R)-4-hydroxy-1-(((1R, 2R)-2-((4-(4-((1R, 2S)-6-hydroxy-2-phenyl-1,2,3,4-tetrahydronaphthalen-1-yl)phenyl)piperazin-1-yl)methyl)cyclohexyl)methyl)-2-methylpiperidin-4-yl)-1-methyl-1H-indazol-3-yl)dihydropyrimidine-2,4 (1H,3H)-dione]: less than 25 nM.
Next, `Cn1nc(C2CCC(=O)NC2=O)c2cc(F)c(C3CCN(C[C@H]4CCCC[C@@H]4CN4CCN(c5ccc([C@@H]6c7ccc(O)cc7CC[C@@H]6c6ccccc6)cc5)CC4)CC3)cc21` (stereo partly drawn) [IV-10, 3-(5-fluoro-6-(1-(((1S,2S)-2-((4-(4-((1R,2S)-6-hydroxy-2-phenyl-1,2,3,4-tetrahydronaphthalen-1-yl)phenyl)piperazin-1-yl)methyl)cyclohexyl)methyl)piperidin-4-yl)-1-methyl-1H-indazol-3-yl)piperidin-2,6-dione]: less than 50 nM; `O=C1CCC(n2cnc3cc(N4CCN(C[C@@H]5CCCC[C@H]5CN5CCN(c6ccc([C@@H]7c8ccc(O)cc8CC[C@@H]7c7ccccc7)cc6)CC5)CC4)ccc32)C(=O)N1` (some centres unmarked) [Compound V-3]: less than 50 nM.
Take `Cn1c(=O)n(C2CCC(=O)NC2=O)c2cccc(C3CCN(C[C@@H]4CCCC[C@H]4CN4CCN(c5ccc([C@@H]6c7ccc(O)cc7CC[C@@H]6c6ccccc6)cc5)CC4)CC3)c21` (some centres unmarked) [VII-3]: the IC50 was less than 100 nM.
In the case of `Cn1nc(N2CCC(=O)NC2=O)c2cc(F)c(C3CCN(C[C@H]4CCCC[C@@H]4CN4CCN(c5ccc([C@@H]6c7ccc(O)cc7CC[C@@H]6c6ccccc6)cc5)CC4)CC3(F)F)cc21` (stereo in doubt) [IV-12], the IC50 was less than 100 nM.
Then `Cn1nc(C2CCC(=O)NC2=O)c2cc(F)c(N3CCN(C[C@@H]4CCCC[C@H]4CN4CCN(c5ccc([C@@H]6c7ccc(O)cc7CC[C@@H]6c6ccccc6)cc5)CC4)CC3)cc21` (some centres unmarked) [IV-1], with less than 50 nM; and `Cn1nc(N2CCC(=O)NC2=O)c2cc(F)c(N3CC4(CCN(C[C@@H]5CCCC[C@H]5CN5CCN(c6ccc([C@@H]7c8ccc(O)cc8CC[C@@H]7c7ccccc7)cc6)CC5)CC4)C3)cc21` [VI-27], with less than 25 nM.
`Cn1nc(N2CCC(=O)NC2=O)c2cc(F)c(C3CCN(C[C@@H]4CCCC[C@H]4CN4CCN(c5ccc([C@@H]6c7ccc(O)cc7CC[C@@H]6c6ccccc6)cc5)CC4)C4(CC4)C3)cc21` (some centres unmarked) [VI-18] returned an IC50 of less than 25 nM.
`Cc1nn(C2CCC(=O)NC2=O)c2cc(F)c(C3CCN(C[C@@H]4CCCC[C@H]4CN4CCN(c5ccc([C@@H]6c7ccc(O)cc7CC[C@@H]6c6ccccc6)cc5)CC4)CC3)cc12` (some centres unmarked) [VI-9] registered an IC50 of less than 100 nM.
Then `O=C1CCC(NC(=O)c2ccc(N3CCN(C[C@@H]4CCCC[C@H]4CN4CCN(c5ccc([C@@H]6c7ccc(O)cc7CC[C@@H]6c6ccccc6)cc5)CC4)CC3)cn2)C(=O)N1` (stereo partly drawn) [III-1, N-(2,6-dioxopiperidin-3-yl)-5-(4-(((1R,2R)-2-((4-(4-((1R,2S)-6-hydroxy-2-phenyl-1,2,3,4-tetrahydronaphthalen-1-yl)phenyl)piperazin-1-yl)methyl)cyclohexyl)methyl)piperazin-1-yl)pyridinecarboxamide], with less than 25 nM.
`Cn1c(=O)n(C2CCC(=O)NC2=O)c2ccc(N3CCN(C[C@@H]4CCCC[C@H]4CN4CCN(c5ccc([C@@H]6c7ccc(O)cc7CC[C@@H]6c6ccccc6)cc5)CC4)CC3)cc21` (some centres unmarked) [VII-2] gave an IC50 of less than 100 nM.
The compound `O=C1CCC(n2cnc3cc(C4CCN(C[C@@H]5CCCC[C@H]5CN5CCN(c6ccc([C@@H]7c8ccc(O)cc8CC[C@@H]7c7ccccc7)cc6)CC5)CC4)ccc32)C(=O)N1` (some centres unmarked) [Compound V-7] showed a concentration for half-maximal inhibition (IC50) of less than 100 nM.
`C[C@H]1CC(c2cc3c(cc2F)c(N2CCC(=O)NC2=O)nn3C)CCN1C[C@@H]1CCCC[C@H]1CN1CCN(c2ccc([C@@H]3c4ccc(O)cc4CC[C@@H]3c3ccccc3)cc2)CC1` (some centres unmarked) [VI-21] gave an IC50 of less than 50 nM.
Then `O=C1CCC(NC(=O)c2ccc(N3CCN(C[C@@H]4CCCC[C@H]4CN4CCN(c5ccc([C@@H]6c7ccc(O)cc7CC[C@@H]6c6ccccc6)cc5)CC4)CC3)cc2F)C(=O)N1` (some centres unmarked) [Compound I-69], with less than 25 nM; and `Cn1c(=O)n(C2CCC(=O)NC2=O)c2cccc(N3CCN(C[C@@H]4CCCC[C@H]4CN4CCN(c5ccc([C@@H]6c7ccc(O)cc7CC[C@@H]6c6ccccc6)cc5)CC4)CC3)c21` (stereo partly drawn) [VII-1, 3-(4-(4-(((1R,2R)-2-((4-(4-((1R,2S)-6-hydroxy-2-phenyl-1,2,3,4-tetrahydronaphthalen-1-yl)phenyl)piperazin-1-yl)methyl)cyclohexyl)methyl)piperazin-1-yl)-3-methyl-2-oxo-2,3-dihydro-1H-benzo[d]imidazol-1-yl)piperidine-2,6-dione], with less than 50 nM; and `Cn1nc(N2CCC(=O)NC2=O)c2cc(F)c(N3CCN(C[C@@H]4CCCC[C@H]4CN4CCN(c5ccc([C@@H]6c7ccc(O)cc7CC[C@@H]6c6ccccc6)cc5)CC4)CC3)cc21` [IV-5], with less than 25 nM.
Then `COC1(c2cc3c(cc2F)c(N2CCC(=O)NC2=O)nn3C)CCN(C[C@@H]2CCCC[C@H]2CN2CCN(c3ccc([C@@H]4c5ccc(O)cc5CC[C@@H]4c4ccccc4)cc3)CC2)CC1` [VI-28], with less than 25 nM.
`Cn1nc(N2CCC(=O)NC2=O)c2cc(F)c(C3CCN(C4CCN(C[C@@H]5CCCC[C@H]5CN5CCN(c6ccc([C@@H]7c8ccc(O)cc8CC[C@@H]7c7ccccc7)cc6)CC5)CC4)CC3)cc21` [VI-19] returned an IC50 of less than 50 nM.
Consider `O=C1CCC(NC(=O)c2ccc(C3CCN(C[C@@H]4CCCC[C@H]4CN4CCN(c5ccc([C@@H]6c7ccc(O)cc7CC[C@@H]6c6ccccc6)cc5)CC4)CC3)cn2)C(=O)N1` (stereo partly drawn) [III-3, N-(2,6-dioxopiperidin-3-yl)-5-(1-(((1R,2R)-2-((4-(4-((1R,2S)-6-hydroxy-2-phenyl-1,2,3,4-tetrahydronaphthalen-1-yl)phenyl)piperazin-1-yl)methyl)cyclohexyl)methyl)piperidin-4-yl)pyridinecarboxamide], for which the IC50 was less than 100 nM.
Then `C[C@@H]1CC(c2cc3c(cc2F)c(N2CCC(=O)NC2=O)nn3C)C[C@H](C)N1C[C@@H]1CCCC[C@H]1CN1CCN(c2ccc([C@@H]3c4ccc(O)cc4CC[C@@H]3c3ccccc3)cc2)CC1` (some centres unmarked) [VI-22], with less than 50 nM; and `O=C1CCC(NC(=O)c2ccc(C3CCN(C[C@@H]4CCCC[C@H]4CN4CCN(c5ccc([C@@H]6c7ccc(O)cc7CC[C@@H]6c6ccccc6)cc5)CC4)CC3)cc2F)C(=O)N1` (stereo partly drawn) [Compound I-67, N-(2,6-dioxopiperidin-3-yl)-2-fluoro-4-(1-(((1R,2R)-2-((4-(4-((1R,2S)-6-hydroxy-2-phenyl-1,2,3,4-tetrahydronaphthalen-1-yl)phenyl)piperazin-1-yl)methyl)cyclohexyl)methyl)piperidin-4-yl)benzamide], with less than 100 nM.
